From patent US20250248980A1, “IMMUNE MODULATORY AGENTS” (PRESIDENT AND FELLOWS OF HARVARD COLLEGE, priority 2022, published 2025) come the findings set out here.

Common to all, as to type: cell-based
The subject of assay [1] is IL17A-dependent gene expression in mouse keratinocytes. Description: IL17A-dependent gene expression in mouse keratinocytes (RT-qPCR, secondary assay, FIG. 11). Conditions: 10 μM compound, 5 ng/ml IL17A, 24 hours. The procedure: Mouse keratinocytes were cultured and stimulated with 5 ng/ml IL17A for 24 hours. During the treatment, 10 μM of each compound was added, and reverse transcription-quantitative polymerase chain reaction (RT-qPCR) was used for the gene expression level analyses of the following genes: cxcl1, cxcl2, cxcl5, 24p3, zc3h12a, S100a8, and S100a9. The top-down order of the treatment conditions indicated in the legend correspond to the left-right order of the bars for each gene. […] Compounds C770-0711 (2), C770-0720 (3), 60546479 (6), C881-0413 (9), and LAS 51593897 (11) are also of interest (see grey boxes).
(In general: Quantitative PCR measures a nucleic acid by following its amplification.)

The target of assay [2] is T1, IL-17 receptor (the IL-17RA-IL-17RC heterodimer) (Mus musculus, UniProt Q60943+Q8K4C2, F156E).
T1 sequence (Q60943 32-358): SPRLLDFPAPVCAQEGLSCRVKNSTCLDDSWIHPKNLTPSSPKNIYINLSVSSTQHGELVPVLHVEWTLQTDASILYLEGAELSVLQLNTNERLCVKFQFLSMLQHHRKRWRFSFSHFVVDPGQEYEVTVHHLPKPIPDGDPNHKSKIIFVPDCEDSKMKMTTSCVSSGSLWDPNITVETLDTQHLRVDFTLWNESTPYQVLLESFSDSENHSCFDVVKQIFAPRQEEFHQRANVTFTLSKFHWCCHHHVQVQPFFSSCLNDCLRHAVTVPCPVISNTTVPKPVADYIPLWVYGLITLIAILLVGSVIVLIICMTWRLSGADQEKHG
T1 sequence (Q8K4C2 22-500 F156E): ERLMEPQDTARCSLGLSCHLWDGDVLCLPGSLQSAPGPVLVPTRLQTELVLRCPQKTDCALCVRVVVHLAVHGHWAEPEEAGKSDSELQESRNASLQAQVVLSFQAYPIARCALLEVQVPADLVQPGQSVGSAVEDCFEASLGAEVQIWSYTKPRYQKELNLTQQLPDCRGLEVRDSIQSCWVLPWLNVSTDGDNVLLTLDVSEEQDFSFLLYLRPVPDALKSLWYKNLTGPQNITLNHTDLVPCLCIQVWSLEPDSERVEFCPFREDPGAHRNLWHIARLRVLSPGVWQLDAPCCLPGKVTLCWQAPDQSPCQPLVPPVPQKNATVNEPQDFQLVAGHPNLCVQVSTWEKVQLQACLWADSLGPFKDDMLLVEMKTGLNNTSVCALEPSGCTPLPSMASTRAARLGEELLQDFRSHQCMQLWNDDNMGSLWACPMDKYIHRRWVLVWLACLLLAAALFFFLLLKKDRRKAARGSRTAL
T1 sequence (Q62386 26-158 partner): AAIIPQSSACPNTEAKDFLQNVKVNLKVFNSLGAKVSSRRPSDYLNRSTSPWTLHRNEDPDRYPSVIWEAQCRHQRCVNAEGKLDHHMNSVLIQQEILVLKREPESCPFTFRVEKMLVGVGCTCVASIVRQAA
Description: IL-17A-receptor (IL-17RA/IL-17RC) GFP reporter cell screen. To be noted: reducing IL-17A-receptor reporter activities; for IC50: GFP percentage by microscope, 48 hours; for Emax: maximal effect at high compound concentrations. As for the experimental part:
(§1) FIG. 5 is a dot plot showing the identification of small-molecule compounds that reduce IL-17A or TNF-a receptor activities. Small-molecule screens were performed with 114,665 compounds. Individual compounds were added to IL-17A-reporters or TNF-a-reporters following the addition of respective ligands such as IL-17A or TNF-a (25 ng/ml). The reporter cells were then incubated for additional 48 hours before subjecting them for microscopic analyses (GFP percentage was measured by microscope). Anti-IL17A and anti-TNFa antibodies were used as the positive controls.
To identify small molecule compounds that control IL-17R activity, a screening platform was used to monitor IL-17a binding to its receptor. Upon IL-17a binding to its receptor subunit A (IL-17RA), another receptor subunit IL-17RC is recruited, and these two subunits form a heterodimer. In the exemplary reporter system, a transcription factor (tTA) was tethered, via a protease cleavage site, to IL-17RA. In addition, a tobacco etch virus (TEV) protease was fused to the receptor subunit IL-17RC. Upon the IL-17a-dependent recruitment of IL-17RC-TEV to IL-17RA-tTA, the tTA is cleaved off from its membrane anchor IL-17RA. The released tTA then enters the nucleus and activates the reporter gene (e.g., in this case, GFP). The IL-17RA/RC reporter system responds highly selectively to IL-17a, but not to other related IL-17 family cytokines (except IL-17f).
(§2) Two thousand reporter cells per well (384-well plates) were seeded in 30 ul cell culture medium with either IL-17A (25 ng/ml, unless otherwise indicated) or TNFa ligand (25 ng/ml, unless otherwise indicated); additional screens were performed with IL-17A at 7.5 ng/ml. Then 100 nl of the individual compound was added by a pin transfer and cultured for two days in a CO2 incubator. For the cell viability test, 10 ul HOECHST 33342 was added and incubated for 10 min, followed by the addition of 10 ul 4% PFA. After a 10 min incubation, the reporter cells were washed twice with phosphate-buffered saline (PBS) and kept in 30 ul PBS. The images were acquired and analyzed using an IMAGEXPRESS confocal microscope. For storage, plates were sealed with black light-absorbing films.

Assay [3] concerns the target T2, TNF-a receptor (TNF-R1 reporter cells) (Homo sapiens, UniProt P19438).
T2 construct: expressed in transfected cells; development described in WO2022125865A2
Description: TNF-a-receptor GFP reporter cell screen. To be noted: reducing TNF-a-receptor reporter activities; for IC50: GFP percentage by microscope, 48 hours; for Emax: maximal effect at high compound concentrations. The procedure:
as §1
The IL-17RA/IL-17RC reporter system was used to identify the IL-17a-specific immune modulatory agents, as described herein (see e.g., compounds (1)-(16)). Furthermore, the IL-17A systems and methods were applied to generate other cytokine/cytokine receptor reporter system (tTA fused onto one receptor subunit via a protease cleavage site, TEV fused to another receptor subunit, optimal linkers inserted between different proteins to ensure high signal-to-background ratio; e.g., for identifying TNF-α-specific immune modulatory agents). The screening platform provided herein was used to identify immune modulatory agents including, but not limited to, small molecules and proteins that modulate IL-17A or TNF-α cytokine signaling.
as §2

Regarding `CCN1CCOc2ccccc2CCCC2(CN(C(=O)c3cc(-c4ccccc4F)no3)CCO2)C1=O` (racemic) [Compound 11], in assay [1], the “effect on IL17A-dependent gene expression” value (shortened to “effect”) is “robust inhibitory effects”.
With `CCc1ccc(S(=O)(=O)c2c(C(=O)c3ccccc3)cnc3ccc(CC)cc23)cc1` [Compound 1], in assay [2], the 50% inhibitory concentration (IC50) – broadly, the point on the concentration scale where inhibition reaches its midpoint – turned out to be 4810 nM and the Emax (as a rule, the size of the effect at its maximum, as opposed to the concentration needed) was 78%.
Take `CCOc1ccc(S(=O)(=O)c2c(C(=O)c3ccc(C)c(C)c3)cnc3ccccc23)cc1` [Compound 2]: in assay [1], the “effect” value is recorded as “inhibitory activities”. In addition, in assay [2], the IC50 was 31400 nM and the Emax was found to be 82%.
For the compound `CCOc1ccc(S(=O)(=O)c2c(C(=O)c3ccc(CC)cc3)cnc3ccc(C)cc23)cc1` [Compound 3], the “effect” value in assay [1] was “inhibitory activities”. In assay [2], the half-inhibitory concentration (IC50) was found to be 12200 nM and the Emax was 44%.
In assay [2], `CCc1ccc(S(=O)(=O)c2c(C(=O)c3ccc(C)c(C)c3)cnc3ccccc23)cc1` [Compound 5] gave a 50% inhibitory concentration (IC50) of 6820 nM and an Emax of 57%.
Take `O=C(Nc1ccc(Cl)cc1Cl)c1cc(S(=O)(=O)N2CCCCCC2)ccc1F` [Compound 7]: in assay [2], half-maximal inhibition (IC50) required 15000 nM and the maximal effect (Emax) was 57%.
In assay [3], `COc1cccc(CNC(=O)CSC2=Nc3ccccc3N=C(c3ccc(F)cc3)C2)c1` [Compound 12] yielded a concentration for half-maximal inhibition (IC50) of 6300 nM and a maximal effect (Emax) of 32%.
In assay [3], `COCCn1ccnc1CN(CCO)CCCOc1ccc(Cl)cc1Cl` [Compound 13] registered a half-inhibitory concentration (IC50) of 1950 nM and an Emax of 42%.
`CCc1ccccc1NC(=O)CN1C(=O)COc2ccc(S(=O)(=O)Nc3ccccc3)cc21` [Compound 16]: in assay [3], inhibition was half-maximal at 1580 nM (IC50) and the Emax was 75%.
For the compound `CN(Cc1ccc2nonc2c1)C(=O)C(c1ccc(F)cc1)N1CCCCC1` (centres unmarked) [Compound 17], in assay [3], the IC50 stood at 1460 nM and the Emax is 66%.
In assay [3], `O=C(CSC1=Nc2ccccc2N=C(c2ccc(F)cc2)C1)NCc1ccc(F)cc1` [Compound 23] displayed a half-maximal inhibitory concentration (IC50) of 5300 nM and an Emax of 76%.
In assay [3], `COc1cccc(-c2nn(-c3ccccc3)cc2CN2CCC(NC(C)=O)C2)c1` (centres unmarked) [Compound 24] registered a half-maximal inhibitory concentration (IC50) of 610 nM and an Emax of 75%.
Regarding `O=C(NCCNC(=O)C(c1ccc(F)cc1)N1CCCCC1)c1ccccc1Cl` (centres unmarked) [Compound 25], in assay [3], inhibition was half-maximal at 1670 nM (IC50) and the maximum response (Emax) came to 52%.
The corresponding values for `CC(C)CN1CCc2[nH]cnc2C12CCN(C(=O)c1cccc(F)c1)CC2` [Compound 27] are 2160 nM and 66%.
For `Cc1ccc(Cn2c(CNS(=O)(=O)c3ccc(Cl)s3)nc3cccnc32)cc1` [Compound 34], in that order: 860 nM and 64%.
In assay [3], `COc1cc(NC(=O)C(Cc2ccccc2)NS(=O)(=O)c2cccs2)cc(OC)c1` (centres unmarked) [Compound 35] registered an IC50 of 2560 nM and an Emax of 97%.
In the case of `CCOC(=O)c1ccccc1NC(=O)N1CCCN(S(=O)(=O)c2ccc3c(ccn3CC)c2)CC1` [Compound 36], in assay [3], the IC50 is 7720 nM and the maximal response (Emax) is reported as 92%.
The corresponding values for `COc1ccc(NC(=O)C(NS(=O)(=O)c2cccc3nsnc23)c2ccccc2)cc1` (centres unmarked) [Compound 38] are 3990 nM and 91%.
For `O=C(NC1(CN2CCOCC2)CCCCC1)c1ccccc1N1CCOCC1` [Compound 40], in that order: 2160 nM and 76%.
The corresponding values for `CS(=O)(=O)c1ccc(C2(C(=O)N3CCSCC3)CCCCC2)cc1` [Compound 41] are 5890 nM and 98%.
Consider `Cc1ccc(Cn2c(CNS(=O)(=O)c3ccc(F)c(Cl)c3)nc3cccnc32)cc1` [Compound 45], for which, in assay [3], 1300 nM corresponded to half-maximal inhibition (IC50) and the maximal response (Emax) came out at 67%.
The corresponding values for `O=C(NCc1cccc(Cl)c1)C1(Cc2cscn2)CC2CCC1N2` (centres unmarked) [Compound 48] are 3620 nM and 68%.
For `COc1cc(CN2CCCC(CNC(=O)COc3ccccc3OC)C2)ccc1F` (centres unmarked) [Compound 49], in that order: 791 nM and 87%.
The corresponding values for `Oc1cccc(CN2CCCC(NCc3cc(-c4ccccc4)no3)C2)c1` (centres unmarked) [Compound 51] are 823 nM and 85%.
In assay [3], `CCCN(C/C=C/c1ccccc1)C(=O)CCc1cc2n(n1)CCCNC2` [Compound 52] had an IC50 of 8450 nM and a maximum response (Emax) of 90%.
The corresponding values for `CC(C)Oc1ccccc1-c1cccc(C(=O)NCCc2nncn2C)c1` [Compound 57] are 2340 nM and 47%.
For `COc1ccc(NC(=O)CSc2nc3ccccc3n2CC(=O)N(C)C2CCCCC2)cc1` [Compound 60], in assay [3], the IC50 was found to be 6980 nM and the Emax is reported as 88%.
In assay [3], `CC(C)C1N=C2c3ccccc3N=C(SCC(=O)NCc3ccc(F)cc3)N2C1=O` (centres unmarked) [Compound 61] had an IC50 of 8780 nM and a maximal response (Emax) of 88%.
The corresponding values for `O=c1n(Cc2cccc3ccccc23)nc(C2CCCNC2)n1-c1ccccc1` (centres unmarked) [Compound 62] are 1820 nM and 60%.
In assay [3], `CC(C)(CO)CNC1CC(C)(C)Cc2c1cnn2-c1cccc(F)c1` (centres unmarked) [Compound 63] gave a half-maximal inhibitory concentration (IC50) of 1780 nM and an Emax of 65%.
In assay [3], `COc1cc(C(=O)NCCc2csc3nc(-c4ccccc4C)nn23)cc(OC)c1OC` [Compound 64] displayed an IC50 of 4850 nM and an Emax of 93%.
The corresponding values for `O=C(c1ccccc1OC(F)(F)C(F)F)N1CCNC(=O)C12CCCC2` [Compound 76] are 1360 nM and 64%.
